Results taken from PubChem BioAssay AID1963833 (Molecular Pharmacology Branch, DTP, NCI, 2024).

System: 883617-216-R-J1-PDC complex spheroid viability
Assay: Anticancer human tumor 883617-216-R-J1-PDC patient-derived bladder carcinoma cell line growth inhibition [POLQ]
Conditions: for IC50: curve of first compound; for viability, T/C: stronger effect = lower value
Outline: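 Patient-derived tumour cells were co-cultured with HUVEC and mesenchymal stem cells as multicellular spheroids at 37 °C. They were treated with POLQ inhibitors (novobiocin, ART-558, RP6685) alone or combined with other agents. Top concentrations were at or near clinical Cmax (otherwise 10 microM; SN-38 at 1 microM), decreasing in half-log steps.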

[1] = second compound 0.0316 µM, first compound 0.0316 µM
[2] = second compound 0.0316 µM, first compound 0.1 µM
[3] = second compound 0.0316 µM, first compound 0.316 µM
[4] = second compound 0.0316 µM, first compound 1 µM
[5] = second compound 0.0316 µM, first compound 3.16 µM
[6] = second compound 0.0316 µM, first compound 10 µM
[7] = second compound 0.1 µM, first compound 0.0316 µM
[8] = second compound 0.1 µM, first compound 0.1 µM
[9] = second compound 0.1 µM, first compound 0.316 µM
[10] = second compound 0.1 µM, first compound 1 µM
[11] = second compound 0.1 µM, first compound 3.16 µM
[12] = second compound 0.1 µM, first compound 10 µM
[13] = second compound 0.316 µM, first compound 0.0316 µM
[14] = second compound 0.316 µM, first compound 0.1 µM
[15] = second compound 0.316 µM, first compound 0.316 µM
[16] = second compound 0.316 µM, first compound 1 µM
[17] = second compound 0.316 µM, first compound 3.16 µM
[18] = second compound 0.316 µM, first compound 10 µM
[19] = second compound 1 µM, first compound 0.0316 µM
[20] = second compound 1 µM, first compound 0.1 µM
[21] = second compound 1 µM, first compound 0.316 µM
[22] = second compound 1 µM, first compound 1 µM
[23] = second compound 1 µM, first compound 3.16 µM
[24] = second compound 1 µM, first compound 10 µM
[25] = second compound 3.16 µM, first compound 0.0316 µM
[26] = second compound 3.16 µM, first compound 0.1 µM
[27] = second compound 3.16 µM, first compound 0.316 µM
[28] = second compound 3.16 µM, first compound 1 µM
[29] = second compound 3.16 µM, first compound 3.16 µM
[30] = second compound 3.16 µM, first compound 10 µM
[31] = second compound 10 µM, first compound 0.0316 µM
[32] = second compound 10 µM, first compound 0.1 µM
[33] = second compound 10 µM, first compound 0.316 µM
[34] = second compound 10 µM, first compound 1 µM
[35] = second compound 10 µM, first compound 3.16 µM
[36] = second compound 10 µM, first compound 10 µM
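Also: spheroids exposed to compounds for seven days before readout.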
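For viability, T/C in this document: 100% = DMSO vehicle control viability.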

With `C#Cc1c(F)ccc2cc(O)cc(-c3ncc4c(N5CC6CCC(C5)N6)nc(OCC56CCCN5CC(F)C6)nc4c3F)c12` (centres undefined) + Cc1cccc(N(C)C(=O)C2C(O)CCN2c2nc(C)cc(C(F)(F)F)c2C#N)c1 the IC50 (second compound 0.0316 µM) was over 10 µM, the IC50 (second compound 0.1 µM) was over 10 µM and the IC50 (second compound 0.316 µM) was over 10 µM. The IC50 (second compound 1 µM) was over 10 µM, the IC50 (second compound 3.16 µM) was over 10 µM and the IC50 (second compound 10 µM) was over 10 µM. The viability, T/C [1] was 98.1%, the viability, T/C [2] was 109% and the viability, T/C [3] was 97.7%. The viability, T/C [4] was 95.1%, the viability, T/C [5] was 86.8% and the viability, T/C [6] was 70.1%. For the same compound, the viability, T/C [7] was 98%, the viability, T/C [8] was 104% and the viability, T/C [9] was 109%. The viability, T/C [10] was 89.8%, the viability, T/C [11] was 86.2% and the viability, T/C [12] was 81.4%. It also gave a viability, T/C [13] of 108%, a viability, T/C [14] of 101% and a viability, T/C [15] of 110%. For the same compound, the viability, T/C [16] was 100%, the viability, T/C [17] was 80.6% and the viability, T/C [18] was 77.6%. The viability, T/C [19] was 104%, the viability, T/C [20] was 99% and the viability, T/C [21] was 106%. For the same compound, the viability, T/C [22] was 89.9%, the viability, T/C [23] was 86.5% and the viability, T/C [24] was 72.2%. It also gave a viability, T/C [25] of 103%, a viability, T/C [26] of 101% and a viability, T/C [27] of 97.8%. The viability, T/C [28] was 94.5%, the viability, T/C [29] was 81.5% and the viability, T/C [30] was 78%. It also gave a viability, T/C [31] of 115%, a viability, T/C [32] of 102% and a viability, T/C [33] of 104%. It also gave a viability, T/C [34] of 106%, a viability, T/C [35] of 87.7% and a viability, T/C [36] of 76.2%.

Work on `O=C(Nc1ccc(O)c(NS(=O)(=O)c2ccc(F)cc2)c1)c1ccc(-c2ccccc2)cc1` + COC1C(OC(N)=O)C(O)C(Oc2ccc3c(O)c(NC(=O)c4ccc(O)c(CC=C(C)C)c4)c(=O)oc3c2C)OC1(C)C yielded an IC50 (second compound 0.0316 µM) of over 10 µM, an IC50 (second compound 0.1 µM) of over 10 µM and an IC50 (second compound 0.316 µM) of over 10 µM. The IC50 (second compound 1 µM) was over 10 µM, the IC50 (second compound 3.16 µM) was over 10 µM and the IC50 (second compound 10 µM) was over 10 µM. The viability, T/C [1] was 95.1%, the viability, T/C [2] was 90.8% and the viability, T/C [3] was 83.6%. For the same compound, the viability, T/C [4] was 84.6%, the viability, T/C [5] was 95.9% and the viability, T/C [6] was 64.9%. It also gave a viability, T/C [7] of 81.6%, a viability, T/C [8] of 100% and a viability, T/C [9] of 81%. It also gave a viability, T/C [10] of 89.6%, a viability, T/C [11] of 81.3% and a viability, T/C [12] of 62.4%. For the same compound, the viability, T/C [13] was 88.1%, the viability, T/C [14] was 104% and the viability, T/C [15] was 83.8%. The viability, T/C [16] was 90.1%, the viability, T/C [17] was 89.5% and the viability, T/C [18] was 53.2%. For the same compound, the viability, T/C [19] was 86.4%, the viability, T/C [20] was 86.5% and the viability, T/C [21] was 93.3%. For the same compound, the viability, T/C [22] was 90.4%, the viability, T/C [23] was 81.7% and the viability, T/C [24] was 62.9%. The viability, T/C [25] was 88.9%, the viability, T/C [26] was 96.4% and the viability, T/C [27] was 97.3%. For the same compound, the viability, T/C [28] was 73.5%, the viability, T/C [29] was 77% and the viability, T/C [30] was 65.7%. For the same compound, the viability, T/C [31] was 103%, the viability, T/C [32] was 87.5% and the viability, T/C [33] was 98.3%. For the same compound, the viability, T/C [34] was 83.2%, the viability, T/C [35] was 89.7% and the viability, T/C [36] was 70.4%.
